Laboratory results: paper PMC10648349, “Aromatic Diboronic Acids as Effective KPC/AmpC Inhibitors” (Molecules, 2023)
≈ marks a conversion by molar mass, not a printed value. Read-outs that look alike come from different tables or passages of the source.

What was measured:
E. coli DH5α = assay: whole cell assay, meropenem MIC with tested agent; assay type: cell-based, Escherichia coli
Description: To examine the ability of tested agents to inhibit various carbapenemases and AmpC-enzymes, their synergy with antibiotics against β-lactamase-producing strains was assessed by checkerboard microdilution assay, with slight modification. Checkerboards were prepared in microtiter plates, with seven two-fold dilutions of β-lactams (1–64 mg/L) in the rows and three two-fold dilutions of tested agents and PBA (4–16 mg/L) in the columns. Tested agents’ concentrations were limited to the concentrations at which the newest commercially available BLIs (vaborbactam, relebactam, and avibactam) are used in susceptibility testing. Plates were inoculated and incubated as in the MIC microdilution assay. Parallel, MICs of tested agents and PBA alone were determined by the microdilution assay. Following the incubation, antibiotic MICs in the presence of each agent’s concentration were determined. Moreover, for the first well without growth found in each checkerboard row and column along the growth/non-growth interface, the fractional inhibitory concentration index (FICI) was calculated using the formula below:FICI = [(MIC of antibiotic in combination)/(MIC of antibiotic alone)] + [(MIC of the tested agent in combination)/(MIC of tested agent alone)].

[1] = test system: K. pneumoniae 83 KPC-3-positive, CTX-M-3-positive; assay: checkerboard microdilution, antibiotic plus tested agent; assay type: cell-based, Klebsiella pneumoniae
How it was run: (§1)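 Chequerboard layout: tested agent in three two-fold steps (4–16 mg/L) crossed with seven β-lactam dilutions (1–64 mg/L), meropenem for KPC strains and ceftazidime for the cAmpC strain. FICI from first non-growth wells, off-scale MICs raised one doubling; ≤0.5 counts as synergy, >4 antagonism.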

[2] = test system: K. pneumoniae ATCC BAA-1705 KPC-2-positive; assay: as above; assay type: cell-based, Klebsiella pneumoniae
How it was run: as §1

[3] = test system: K. pneumoniae 81 KPC-3-positive; assay: as above; assay type: cell-based, Klebsiella pneumoniae
How it was run: as §1

C. albicans ATCC 90028 = assay: antifungal activity (disc-diffusion, MIC, MFC); assay type: cell-based; settings: Candida albicans, ATCC90028; for MIC: fluconazole by Etest; for zone of inhibition at 0.4 mg/disc: 0.4 mg per disc, 9 mm disc (fluconazole 0.025 mg, 6 mm disc), - no zone, read-out: Diameter of inhibition zone
How it was run: (§2)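 Disc-diffusion (0.4 mg compound per disc, DMSO solutions), MIC, and MBC for bacteria or MFC for yeasts, run per EUCAST and CLSI recommendations. References: nitrofurantoin for Gram-negative rods, linezolid for Gram-positive bacteria, fluconazole for fungi.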

S. cerevisiae ATCC 9763 = assay: antifungal activity (disc-diffusion, MIC, MFC); assay type: cell-based; settings: Saccharomyces cerevisiae, ATCC9763; for MIC: fluconazole by Etest; for zone of inhibition at 0.4 mg/disc: 0.4 mg per disc, 9 mm disc (fluconazole 0.025 mg, 6 mm disc), - no zone, read-out: Diameter of inhibition zone
How it was run: as §2

C. tropicalis ATCC 750 = assay: antifungal activity (disc-diffusion, MIC, MFC); assay type: cell-based; settings: Candida tropicalis, ATCC750; for MIC: fluconazole by Etest; for zone of inhibition at 0.4 mg/disc: 0.4 mg per disc, 9 mm disc (fluconazole 0.025 mg, 6 mm disc), - no zone, read-out: Diameter of inhibition zone
How it was run: as §2

C. tropicalis IBA 171 = assay: antifungal activity (disc-diffusion, MIC, MFC); assay type: cell-based; settings: Candida tropicalis, IBA171; for MIC: fluconazole by Etest; for zone of inhibition at 0.4 mg/disc: 0.4 mg per disc, 9 mm disc (fluconazole 0.025 mg, 6 mm disc), - no zone, read-out: Diameter of inhibition zone
How it was run: as §2

[4] = test system: K. pneumoniae ATCC BAA 1705 KPC-2-positive; assay: combination disc test CDT-KPC; assay type: cell-based; settings: Klebsiella pneumoniae
E. faecium ATCC 6057 = assay: direct antimicrobial activity (disc-diffusion, MIC, MBC); assay type: cell-based; settings: Enterococcus faecium, ATCC6057; for zone of inhibition at 0.4 mg/disc: 0.4 mg per disc, 9 mm disc (linezolid 0.03 mg, 6 mm disc), - no zone, read-out: Diameter of inhibition zone
How it was run: as §2

[5] = test system: S. epidermidis ATCC 12228; assay: as above; assay type: cell-based; settings: Staphylococcus epidermidis, ATCC12228; for zone of inhibition at 0.4 mg/disc: 0.4 mg per disc, 9 mm disc (linezolid 0.03 mg, 6 mm disc), - no zone, read-out: Diameter of inhibition zone
How it was run: as §2

[6] = test system: E. coli 77 CMY-2-positive; assay: checkerboard microdilution, antibiotic plus tested agent; assay type: cell-based, Escherichia coli
How it was run: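 β-lactam 1–64 mg/L × agent/PBA 4–16 mg/L checkerboard; meropenem vs carbapenemase producers, ceftazidime vs AmpC producer; imipenem, ertapenem added for selected agents. Readout: combination MICs, FICI (average and lowest); off-scale MICs taken as next doubling.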

[7] = test system: E. coli 76 KPC-2-positive; assay: as above; assay type: cell-based, Escherichia coli
How it was run: as §1

[8] = test system: Gram-negative rods (except P. aeruginosa); assay: direct antimicrobial activity, MIC; assay type: cell-based
Description: Direct antimicrobial activity against Gram-negative and Gram-positive bacterial strains, as well as against yeast, was examined as previously described by the disc-diffusion test, the MIC determination assay, the MBC (for bacteria), and the MFC (for yeasts) determination tests. All the above-mentioned tests were performed according to EUCAST [71, 72] and CLSI [73, 74, 75, 76, 77] recommendations. The following reference agents were used: nitrofurantoin (for Gram-negative rods), linezolid (for Gram-positive bacteria), and fluconazole (in the case of fungi). The new aromatic diboronic acids were dissolved in DMSO (Sigma, St. Louis, MO, USA). In the disc-diffusion test, the concentration of new agents was 0.4 mg per disc.

[9] = test system: K. pneumoniae ATCC 700603 ESBL(+); assay: screening test of direct antimicrobial activity (STDA), disc-diffusion; assay type: cell-based; settings: Klebsiella pneumoniae, ATCC700603; 0.3 mg per disc; - no zone; read-out: Diameter of inhibition zone around disc with tested agent
Description: (§3) Prior to combination disc tests, screening tests of direct antimicrobial activity (STDA) of the tested agent against β-lactamase-producing strains were performed by the disc-diffusion method. Discs with 0.3 mg, 0.1 mg, and 0.03 mg of each agent were examined. The highest amount of an agent that caused no effect on bacterial growth was used in further experiments.

E. coli 77 CMY-2(+) = assay: as above; assay type: cell-based; settings: Escherichia coli, - no zone, read-out: Diameter of inhibition zone around disc with tested agent; for zone of inhibition at 300 µg/disc: 0.3 mg per disc
Description: as §3

[10] = test system: P. aeruginosa MUW 700 AmpC(+); assay: as above; assay type: cell-based; settings: Pseudomonas aeruginosa; 0.3 mg per disc; - no zone; read-out: Diameter of inhibition zone around disc with tested agent
Description: as §3

[11] = test system: K. pneumoniae ATCC BAA 1705 KPC(+); assay: as above; assay type: cell-based; settings: Klebsiella pneumoniae, BAA1705; 0.3 mg per disc; - no zone; read-out: Diameter of inhibition zone around disc with tested agent
Description: as §3

[12] = Escherichia coli; read-out: MIC of agent alone
[13] = BAA1705, agent 0.3 mg per disc, read-out: Diameter of inhibition zone, MEM-10 disc with agent

Compound | MIC (E. coli DH5α; [12]) | MIC of meropenem in combination with agent (E. coli DH5α; agent 16 mg/L) | Average FICI with ERT [1] | Average FICI with IMI [1] | Average FICI with MEM [1] | The lowest FICI with ERT [1] | The lowest FICI with IMI [1] | The lowest FICI with MEM [1] | Average FICI with ERT [2] | Average FICI with IMI [2] | Average FICI with MEM [2] | MIC (C. albicans ATCC 90028) | MIC (S. cerevisiae ATCC 9763) | MIC (C. tropicalis ATCC 750) | MIC (C. tropicalis IBA 171) | MIC (E. faecium ATCC 6057) | MIC [5] | zone of inhibition at 0.4 mg/disc [5] | Average FICI with ceftazidime [6] | The lowest FICI with ceftazidime [6] | also measured
OB(O)c1ccc(B(O)O)cc1 [1a] | > 400 µg/mL | 0.016 mg/L | 0.35 | 0.35 | 0.39 | 0.26 | 0.26 | 0.15 | 0.43 | 0.43 | 0.30 | > 400 µg/mL | 400 µg/mL (≈ 2410 µM) | > 400 µg/mL | > 400 µg/mL | 400 µg/mL (≈ 2410 µM) | 400 µg/mL (≈ 2410 µM) | 14 mm | 0.30 | 0.15 | The lowest FICI with ERT [2]: 0.27; The lowest FICI with IMI [2]: 0.27; The lowest FICI with MEM [2]: 0.15; Average FICI with ERT [3]: 0.20; Average FICI with IMI [3]: 0.22; Average FICI with MEM [3]: 0.24; The lowest FICI with ERT [3]: 0.08; The lowest FICI with IMI [3]: 0.15; The lowest FICI with MEM [3]: 0.08; zone of inhibition at 300 µg/disc [4, 13]: 19 mm; Average FICI with ERT [7]: 0.22; Average FICI with IMI [7]: 0.30; Average FICI with MEM [7]: 0.31; The lowest FICI with ERT [7]: 0.15; The lowest FICI with IMI [7]: 0.15; The lowest FICI with MEM [7]: 0.15
OB(O)c1cc(Br)c(B(O)O)cc1Br [1i] | – | – | – | – | – | – | – | – | – | – | – | 12.5 µg/mL (≈ 38.6 µM) | 50 µg/mL (≈ 155 µM) | 50 µg/mL (≈ 155 µM) | 25 µg/mL (≈ 77.3 µM) | 200 µg/mL (≈ 618 µM) | 50 µg/mL (≈ 155 µM) | 21 mm | – | – | MIC [8]: 50 to 400 µg/mL (≈ 155 to 1240 µM); zone of inhibition at 0.4 mg/disc (C. albicans ATCC 90028): 31 mm; zone of inhibition at 0.4 mg/disc (S. cerevisiae ATCC 9763): 24 mm; zone of inhibition at 0.4 mg/disc (C. tropicalis ATCC 750): 25 mm; zone of inhibition at 0.4 mg/disc (C. tropicalis IBA 171): 29 mm; zone of inhibition at 100 µg/disc ([4]; BAA1705, agent 0.1 mg per disc, read-out: Diameter of inhibition zone, MEM-10 disc with agent): 6 mm; zone of inhibition at 300 µg/disc [9]: 13 mm; zone of inhibition at 300 µg/disc (E. coli 77 CMY-2(+)): 16 mm; zone of inhibition at 300 µg/disc [10]: 12 mm; zone of inhibition at 300 µg/disc [11]: 15 mm; zone of inhibition at 0.4 mg/disc (E. faecium ATCC 6057): 11 mm
OB(O)c1cccc(B(O)O)c1 [2a] | > 400 µg/mL | 0.016 mg/L | – | – | – | – | – | – | – | – | – | 400 µg/mL (≈ 2410 µM) | > 400 µg/mL | > 400 µg/mL | 400 µg/mL (≈ 2410 µM) | > 400 µg/mL | 200 µg/mL (≈ 1210 µM) | 21 mm | 0.22 | 0.15 | zone of inhibition at 300 µg/disc [4, 13]: 15 mm
O=Cc1cc(F)ccc1B(O)O [7b] | – | – | – | – | – | – | – | – | – | – | – | 6.25 µg/mL (≈ 37.2 µM) | 6.25 µg/mL (≈ 37.2 µM) | 50 µg/mL (≈ 298 µM) | 50 µg/mL (≈ 298 µM) | 200 µg/mL (≈ 1190 µM) | 50 µg/mL (≈ 298 µM) | 30 mm | – | – | MIC [8]: 50 to 400 µg/mL (≈ 298 to 2380 µM); zone of inhibition at 0.4 mg/disc (C. albicans ATCC 90028): 31 mm; zone of inhibition at 0.4 mg/disc (S. cerevisiae ATCC 9763): 35 mm; zone of inhibition at 0.4 mg/disc (C. tropicalis ATCC 750): 21 mm; zone of inhibition at 0.4 mg/disc (C. tropicalis IBA 171): 22 mm; zone of inhibition at 300 µg/disc [9]: 13 mm; zone of inhibition at 100 µg/disc (E. coli 77 CMY-2(+); 0.1 mg per disc): 12 mm; zone of inhibition at 300 µg/disc (E. coli 77 CMY-2(+)): 14 mm; zone of inhibition at 300 µg/disc [11]: 14 mm; zone of inhibition at 0.4 mg/disc (E. faecium ATCC 6057): 14 mm; MBC [5]: 100 µg/mL (≈ 595 µM)
OB(O)c1ccccc1 [PBA, phenylboronic acid, reference compound] | – | 0.016 mg/L | 0.51 | 0.68 | 0.35 | 0.51 | 0.51 | 0.26 | 0.85 | 0.43 | 0.43 | – | – | – | – | – | – | – | 0.30 | 0.15 | MIC (E. coli DH5α; Escherichia coli, read-out: MIC of agent alone): > 400 µg/mL; The lowest FICI with ERT [2]: 0.52; The lowest FICI with IMI [2]: 0.27; The lowest FICI with MEM [2]: 0.27; Average FICI with ERT [3]: 0.51; Average FICI with IMI [3]: 0.43; Average FICI with MEM [3]: 0.51; The lowest FICI with ERT [3]: 0.51; The lowest FICI with IMI [3]: 0.27; The lowest FICI with MEM [3]: 0.51; zone of inhibition at 300 µg/disc ([4]; BAA1705, read-out: Diameter of inhibition zone, MEM-10 disc with agent): 21 mm; Average FICI with ERT [7]: 0.35; Average FICI with IMI [7]: 0.22; Average FICI with MEM [7]: 0.26; The lowest FICI with ERT [7]: 0.26; The lowest FICI with IMI [7]: 0.15; The lowest FICI with MEM [7]: 0.26
